The target in this assay is human 11β-HSD1 microsome fraction (Homo sapiens, UniProt P28845). As to the kind of experiment: Enzymatic 11beta-HSD1 test (SPA-based detection). Type of assay: biochemical. Conditions: [1,2-3H]-cortisone substrate, 0.25 mM NADPH, 37° C., 1 hour; read-out: IC50 (nM), Biological activity in nanomolar. Here is the method: Enzymatic 11beta-HSD1 Test:
To measure the activity of the compounds, an SPA-based detection method (Solly et al. 2005) was employed. First of all, 20 μl of the human 11β-HSD1 microsome fraction (0.2 μg of protein), prepared in 50 mM HEPES, 0.1% BSA (w/v), were applied to a plate with 384 wells. The test compounds (0.09 μl) were applied to the assay plate in 100% DMSO. The reaction was started by addition of 20 μl of [1,2-^3H]-cortisone (0.1 μCi/[…]) in assay buffer comprising 25 mM HEPES, 100 mM KCl, 5 mM NaCl, 2 mM MgCl2 and 0.25 mM NADPH. The plate was agitated at 37° C. for 1 hour. At the same time, a stop solution comprising 20 mg/ml SPA-PVT beads, 1.6 mg/ml monoclonal cortisol antibody and 0.01 mM SSR110887 (inhibitor from the Biovitrium patent) in 50 mM HEPES, 1 M NaCl and 1 M KCl was stirred at room temperature. To stop the reaction, 25 μl of the stop solution were added to each well. The plate was agitated gently at room temperature for 1 further hour and then centrifuged at 500 gav for 1 min, in order that the SPA beads could settle out. The plate was then read in a Wallac-1450-Microbeta unit with a standard SPA program (counting time 1 min/well). The comparative compound was glycyrrhetinic acid.
Protein and radioactive substrate were dispensed with a Biomek FX unit (Beckman Coulter) for handling liquids. The test compounds were added with a Cybi-Well equipped with a 90 nl pin tool (CyBio).
Lit.: Solly S, Mundt S S, Zokian H J, Juy-Fang Ding G, Hermanowski-Vosatka A, Strulovici B and Zheng W. High-throughput screening of 11β-Hydroxysteroid dehydrogenase type 1 in scintillation proximity format. Assay Drug Dev Technol 2005; 3:377-384.

human 11β-HSD1 microsome fraction, sequence (P28845 whole entry): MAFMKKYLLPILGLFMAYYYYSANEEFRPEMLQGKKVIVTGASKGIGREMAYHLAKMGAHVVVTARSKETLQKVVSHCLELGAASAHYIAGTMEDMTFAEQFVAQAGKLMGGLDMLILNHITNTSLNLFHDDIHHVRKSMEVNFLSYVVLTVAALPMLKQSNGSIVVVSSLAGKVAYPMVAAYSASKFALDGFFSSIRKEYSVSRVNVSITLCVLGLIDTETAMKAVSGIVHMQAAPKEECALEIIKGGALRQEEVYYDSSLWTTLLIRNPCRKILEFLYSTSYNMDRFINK

Turning to `CC1C(C)(C)OC(NC2CCCCC2)=NS1(=O)=O` (centres unmarked) [Example 1, Cyclohexyl-(5,6,6-trimethyl-4,4-dioxo-5,6-dihydro-4H-4lambda6-[1,4,3]oxathiazin-2-yl) amine], the concentration for half-maximal inhibition (IC50) (usually the concentration that inhibits the measured activity by half) worked out at 139 nM. `O=S1(=O)CC2(CCC2)OC(NC2CCCCC2)=N1` [Example 2, Cyclohexyl-(8,8-dioxo-5-oxa-8lambda6-thia-7-azaspiro[3.5]non-6-en-6-yl)amine]: the 50% inhibitory concentration (IC50) came out at 399 nM. In the case of `O=S1(=O)CC2(CCCC2)OC(NC2CCCCC2)=N1` [Example 3, Cyclohexyl-(9,9-dioxo-6-oxa-9lambda6-thia-8-azaspiro[4.5]dec-7-en-7-yl)amine], the concentration for half-maximal inhibition (IC50) was found to be 308 nM. For the molecule `O=S1(=O)CC2(CCCCC2)OC(NC2CCCCC2)=N1` [Example 4, Cyclohexyl-(4,4-dioxo-1-oxa-4lambda6-thia-3-azaspiro[5.5]undec-2-en-2-yl)amine], the half-inhibitory concentration (IC50) came to 300 nM. Consider `CC1(C)CS(=O)(=O)N=C(N[C@@H](CCO)c2ccccc2)O1` [Example 5, (S)-3-(6,6-Dlmethyl-4,4-dioxo-5,6-dihydro-4H-4lambda6-[1,4,3]oxathiazin-2-ylamino)-3 phenylpropan-1-ol], for which the concentration for half-maximal inhibition (IC50) turned out to be 307 nM. Then `O=S1(=O)CC2(CCC2)OC(N[C@@H](CCO)c2ccccc2)=N1` [Example 6, (S)-3-(8,8-Dioxo-5-oxa-8lambda6-thia-7-azaspiro[3.5]non-6-en-6-ylamino)-3-phenyl-propan-1-ol], with 128 nM. For `O=S1(=O)CC2(CCCC2)OC(N[C@@H](CCO)c2ccccc2)=N1` [Example 7, (S)-3-(9,9-Dioxo-6-oxa-9lambda6-thia-8-aza-spiro[4.5]dec-7-en-7-ylamino)-3-phenyl-propan-1-ol], the half-inhibitory concentration (IC50) stood at 113 nM. In the case of `O=S1(=O)CC2(CCCCC2)OC(N[C@@H](CCO)c2ccccc2)=N1` [Example 8, (S)-3-(4,4-Dioxo-1-oxa-4lambda6-thia-3-aza-spiro[5.5]undec-2-en-2-ylamino)-3-phenyl-propan-1-ol], the IC50 worked out at 66 nM.

(Values after patent US8710050B2, “Di and tri- substituted oxathiazine derivatives, method for the production, method for the production thereof, use thereof as medicine and drug containing said derivatives and use thereof” (Sanofi, priority 2011, dated 2014).)
